3 molecules from US4229438A, “Nonapeptides” (Takeda Chemical Industries, Ltd., priority 1978, dated 1980) can be followed below.

SMILES strings stand for the structures. Residues, ends and D or L forms follow the SMILES beside them.

The subject of the assay is spleen cells of C3H/He mouse (23-26% albumin layer interface fraction). Description: Determination of theta antigen induction activity (procedure analogous to Komuro et al). It counts as cell-based. To be noted: C3H/He mouse spleen cell fraction in RPMI-1640, incubated with peptide at 37° C. for 2 hours; lysis with anti(theta) serum and guinea-pig complement. The method, then: The theta antigen induction activity of the nonapeptide (I) is assayed by a procedure analogous to the procedure described in the article of Komuro et al [The Lancet, i, 740-743 (1973)]. The spleen is enucleated from a C3H/He mouse, 2-3 months old, and minced in a tissue culture fluid (RPMI-1640). The resulting spleen cell suspension is fractionated by discontinuous density gradient centrifugation using 10 to 35% bovine serum albumin. The cells migrating to the 23-26% albumin layer interface are collected and resuspended in RPMI-1640. To this cell suspension is added the peptide, the activity of which is to be determined, at a varying concentration and the mixture is incubated at 37° C. for 2 hours. If the peptide added be active, fresh theta antigen will appear on the cell surface. Therefore, the count of such cells is taken by lysing with an outbred mouse anti(theta) serum and guinea-pig complement. The theta-antigen induction activity is computed by means of the following equation. Theta-antigen induction activity(%)=(A-B/A)×100 where A is the count of theta antigen-negative cells in the absence of the test peptide and B is the count of theta antigen-negative cells when the test peptide has been added.
As for `C[C@H](NC(=O)[C@@H]1CCC(=O)N1)C(=O)N[C@@H](CCCCN)C(=O)N[C@@H](CO)C(=O)N[C@@H](CCC(N)=O)C(=O)NCC(=O)N[C@H](C)C(=O)N[C@@H](CO)C(=O)N[C@@H](CC(N)=O)C(=O)O` [Example 3, pGlu-Ala-Lys-Ser-Gln-Gly-(D)-Ala-Ser-Asn-OH] (HELM PEPTIDE1{[Glp].A.K.S.Q.G.[dA].S.N}$$$$V2.0), the “The concentration required for showing at least 10% theta antigen induction activity” value was 1 to 10 ng/mL.
On to `C[C@@H](NC(=O)[C@@H]1CCC(=O)N1)C(=O)N[C@@H](CCCCN)C(=O)N[C@@H](CO)C(=O)N[C@@H](CCC(N)=O)C(=O)NCC(=O)NCC(=O)N[C@@H](CO)C(=O)N[C@@H](CC(N)=O)C(=O)O` [Example 1, pGlu-(D)-Ala-Lys-Ser-Gln-Gly-Gly-Ser-Asn-OH] (HELM PEPTIDE1{[Glp].[dA].K.S.Q.G.G.S.N}$$$$V2.0), for which the “The concentration required for showing at least 10% theta antigen induction activity” value was 1 to 10 ng/mL.
To `C[C@H](NC(=O)[C@@H]1CCC(=O)N1)C(=O)N[C@@H](CCCCN)C(=O)N[C@@H](CO)C(=O)N[C@@H](CCC(N)=O)C(=O)N[C@H](C)C(=O)NCC(=O)N[C@@H](CO)C(=O)N[C@@H](CC(N)=O)C(=O)O` [Example 4, pGlu-Ala-Lys-Ser-Gln-(D)-Ala-Gly-Ser-Asn-OH] (HELM PEPTIDE1{[Glp].A.K.S.Q.[dA].G.S.N}$$$$V2.0) belongs 0.1 to 1 ng/mL.
